Patent US12502434B2, “Compound comprising EZH2 inhibitor and E3 ligase binder and pharmaceutical composition for preventing or treating EZH2-associated disease comprising same as active ingredient” (DAEGU-GYEONGBUK MEDICAL INNOVATION FOUNDATION, priority 2019, dated 2025)
Read-outs that look alike come from different tables or passages of the source.

Target: T1, EZH2 protein in LS174T cells (Homo sapiens, UniProt Q15910)
T1 construct: endogenous in cells; host or cells: LS174T
Experiment: Proteolytic effect in colorectal cancer cells (Western blotting)
Format: cell-based
Method: After 72 hours of the treatment, the cells were collected and lysed using RIPA buffer (50 mM Tris, pH 7.5, 150 mM NaCl, 1% Triton X-100, 0.1% SDS, […], 0.5% deoxycholate, and protease inhibitor cocktail), followed by sonication (30 sec on/30 sec off, 5 cycles) to prepare a cell lysate.

[1] = EZH2 protein, LS174T cells, 1 μM, 72 hours
[2] = EZH2 protein, LS174T cells, 1 uM, 72 hours, Western blotting

T1 sequence (Q15910 whole entry): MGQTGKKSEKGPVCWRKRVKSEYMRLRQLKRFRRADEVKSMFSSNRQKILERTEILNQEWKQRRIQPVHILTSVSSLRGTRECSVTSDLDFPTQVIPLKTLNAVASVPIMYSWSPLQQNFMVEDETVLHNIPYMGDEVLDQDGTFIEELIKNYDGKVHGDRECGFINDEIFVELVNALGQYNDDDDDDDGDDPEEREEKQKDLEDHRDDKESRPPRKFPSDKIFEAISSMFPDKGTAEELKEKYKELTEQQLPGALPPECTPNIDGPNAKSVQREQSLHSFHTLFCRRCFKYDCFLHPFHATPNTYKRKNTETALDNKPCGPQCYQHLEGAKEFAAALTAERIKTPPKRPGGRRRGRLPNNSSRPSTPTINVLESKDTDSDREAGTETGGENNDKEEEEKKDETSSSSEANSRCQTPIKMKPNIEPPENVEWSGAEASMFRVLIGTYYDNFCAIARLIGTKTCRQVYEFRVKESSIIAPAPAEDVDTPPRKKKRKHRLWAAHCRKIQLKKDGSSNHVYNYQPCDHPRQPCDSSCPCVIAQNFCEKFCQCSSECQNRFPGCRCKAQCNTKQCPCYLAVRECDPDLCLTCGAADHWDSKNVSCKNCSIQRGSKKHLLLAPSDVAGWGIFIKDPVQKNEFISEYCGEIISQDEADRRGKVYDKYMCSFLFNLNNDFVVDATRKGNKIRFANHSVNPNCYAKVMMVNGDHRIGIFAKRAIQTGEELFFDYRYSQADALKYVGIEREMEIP
T1 sequence (O75530 whole entry partner): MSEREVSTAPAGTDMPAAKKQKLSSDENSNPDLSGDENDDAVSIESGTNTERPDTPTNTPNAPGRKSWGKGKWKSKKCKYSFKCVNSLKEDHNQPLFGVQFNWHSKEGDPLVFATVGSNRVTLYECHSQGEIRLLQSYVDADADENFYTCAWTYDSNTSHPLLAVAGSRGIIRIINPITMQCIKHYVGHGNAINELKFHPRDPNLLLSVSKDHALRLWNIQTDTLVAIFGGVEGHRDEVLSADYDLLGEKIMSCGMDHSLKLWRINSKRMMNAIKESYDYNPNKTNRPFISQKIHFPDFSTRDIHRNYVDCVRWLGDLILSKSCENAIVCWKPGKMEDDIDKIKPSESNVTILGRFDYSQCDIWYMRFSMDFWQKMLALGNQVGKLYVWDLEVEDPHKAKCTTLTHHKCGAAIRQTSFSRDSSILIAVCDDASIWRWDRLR
T1 sequence (Q15022 whole entry partner): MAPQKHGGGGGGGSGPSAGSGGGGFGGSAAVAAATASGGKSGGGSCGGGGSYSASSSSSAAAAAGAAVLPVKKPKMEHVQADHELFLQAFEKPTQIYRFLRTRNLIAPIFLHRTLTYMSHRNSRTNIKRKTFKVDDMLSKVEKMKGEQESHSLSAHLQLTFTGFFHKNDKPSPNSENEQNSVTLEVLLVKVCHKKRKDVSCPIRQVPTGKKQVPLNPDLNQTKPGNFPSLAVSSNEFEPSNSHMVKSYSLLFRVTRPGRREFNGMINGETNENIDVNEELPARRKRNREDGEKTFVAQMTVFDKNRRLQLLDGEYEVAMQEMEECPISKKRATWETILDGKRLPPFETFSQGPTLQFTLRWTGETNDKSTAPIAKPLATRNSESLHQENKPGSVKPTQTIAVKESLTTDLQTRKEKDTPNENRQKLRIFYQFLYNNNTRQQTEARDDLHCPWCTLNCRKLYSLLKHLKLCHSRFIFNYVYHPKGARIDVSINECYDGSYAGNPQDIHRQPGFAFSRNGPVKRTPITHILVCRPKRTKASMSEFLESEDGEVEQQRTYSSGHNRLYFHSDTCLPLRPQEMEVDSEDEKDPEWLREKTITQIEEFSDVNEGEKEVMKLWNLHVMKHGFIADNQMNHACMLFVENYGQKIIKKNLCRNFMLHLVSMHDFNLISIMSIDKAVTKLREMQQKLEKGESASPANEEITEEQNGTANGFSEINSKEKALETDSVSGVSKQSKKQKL

Row | Compound | %, degradation at 1 uM [%] | Grade (percent value of the protein degradation when treated with 1 μM) | Grade (percent value of the protein degradation when treated with 1 μM) [1] | %, degradation at 1 uM [2] [%] | effect of degrading EZH2 protein when treated to colorectal cancer cells (in words) (LS174T cells)
1 | CCN(c1cc(-c2ccc(CN3CCN(CC(=O)NCCCCCCNc4cccc5c4CN(C4CCC(=O)NC4=O)C5=O)CC3)cc2)cc(C(=O)NCc2c(C)cc(C)[nH]c2=O)c1C)C1CCOCC1 (stereo not drawn) [Example 20, N-((4,6-dimethyl-2-oxo-1,2-dihydropyridine-3-yl)methyl)-4′-((4-(2-((6-((2-(2,6-dioxopiperidine-3-yl)-1-oxoisoindoline-4-yl)amino)hexyl)amino)-2-oxoethyl)piperazine-1-yl)methyl)-5-(ethyl(tetrahydro-2H-pyran-4-yl)amino)-4-methyl[1,1′-biphenyl]-3-carboxamide] | 58.73 | B (key: A: >75%; B: 50-75%; C: 25-50%; D: <25%) | – | – | –
2 | CCN(c1cc(-c2ccc(CN3CCN(CC(=O)NCCCOCCOc4cccc5c4C(=O)N(C4CCC(=O)NC4=O)C5=O)CC3)cc2)cc(C(=O)NCc2c(C)cc(C)[nH]c2=O)c1C)C1CCOCC1 (stereo not drawn) [Example 17, N-((4,6-dimethyl-2-oxo-1,2-dihydropyridine-3-yl)methyl)-4′-((4-(2-((3-(2-((2-(2,6-dioxopiperidine-3-yl)-1,3-dioxoisoindoline-4-yl)oxy)ethoxy)propyl)amino)-2-oxoethyl)piperazine-1-yl)methyl)-5-(ethyl(tetrahydro-2H-pyran-4-yl)amino)-4-methyl-[1,1′-biphenyl]-3-carboxamide] | 3.25 | D (key: A: >75%; B: 50-75%; C: 25-50%; D: <25%) | – | – | –
3 | CCN(c1cc(-c2ccc(CN3CCN(CC(=O)NCCCCCCNc4cccc5c4C(=O)N(C4CCC(=O)NC4=O)C5=O)CC3)cc2)cc(C(=O)NCc2c(C)cc(C)[nH]c2=O)c1C)C1CCOCC1 (stereo not drawn) [Example 6, N-((4,6-dimethyl-2-oxo-1,2-dihydropyridine-3-yl)methyl)-4′-((4-(2-((6-((2-(2,6-dioxopiperidine-3-yl)-1,3-dioxoisoindoline-4-yl)amino)hexyl)amino)-2-oxoethyl)piperazine-1-yl)methyl)-5-(ethyl(tetrahydro-2H-pyran-4-yl)amino)-4-methyl-[1,1′-biphenyl]-3-carboxamide] | – | – | B (50-75%) | 61.64 | –
4 | CCN(c1cc(-c2ccc(CN3CCN(CC(=O)NCCCCCC(=O)N[C@H](C(=O)N4C[C@H](O)C[C@H]4C(=O)NCc4ccc(-c5scnc5C)cc4)C(C)(C)C)CC3)cc2)cc(C(=O)NCc2c(C)cc(C)[nH]c2=O)c1C)C1CCOCC1 [Example 41, (2S,4R)-1-((S)-2-(6-(2-(4-((3′-(((4,6-dimethyl-2-oxo-1,2-dihydropyridine-3-yl)methyl)carbamoyl)-5′-(ethyl(tetrahydro-2H-pyran-4-yl)amino)-4′-methyl-[1,1′-biphenyl]-4-yl)methyl)piperazine-1-yl)acetamido)hexanamido)-3,3-dimethylbutanoyl)-4-hydroxy-N-(4-(4-methylthiazole-5-yl)benzyl)pyrrolidine-2-carboxamide] | – | – | D (<25%) | 8.36 | –
5 | CCN(c1cc(-c2ccc(CN3CCN(C(=O)c4cn(CCCCC(=O)N[C@H](C(=O)N5C[C@H](O)C[C@H]5C(=O)NCc5ccc(-c6scnc6C)cc5)C(C)(C)C)nn4)CC3)cc2)cc(C(=O)NCc2c(C)cc(C)[nH]c2=O)c1C)C1CCOCC1 [Example 48, (2S,4R)-1-((S)-2-(5-(4-(4-((3′-(((4,6-dimethyl-2-oxo-1,2-dihydropyridine-3-yl)methyl)carbamoyl)-5′-(ethyl(tetrahydro-2H-pyran-4-yl)amino)-4′-methyl-[1,1′-biphenyl]-4-yl)methyl)piperazine-1-carbonyl)-1H-1,2,3-triazole-1-yl)pentanamido)-3,3-dimethylbutanoyl)-4-hydroxy-N-(4-(4-methylthiazole-5-yl)benzyl)pyrrolidine-2-carboxamide] | – | – | D (<25%) | 5.74 | excellent effects
6 | CCN(c1cc(-c2ccc(CN3CCN(CC(=O)NCCCOCCNc4cccc5c4C(=O)N(C4CCC(=O)NC4=O)C5=O)CC3)cc2)cc(C(=O)NCc2c(C)cc(C)[nH]c2=O)c1C)C1CCOCC1 (stereo not drawn) [Example 15, N-((4,6-dimethyl-2-oxo-1,2-dihydropyridine-3-yl)methyl)-4′-((4-(2-((3-(2-((2-(2,6-dioxopiperidine-3-yl)-1,3-dioxoisoindoline-4-yl)amino)ethoxy)propyl)amino)-2-oxoethyl)piperazine-1-yl)methyl)-5-(ethyl(tetrahydro-2H-pyran-4-yl)amino)-4-methyl-[1,1′-biphenyl]-3-carboxamide] | – | – | D (<25%) | 0 | –
7 | CCN(c1cc(-c2ccc(CN3CCN(Cc4cn(CCOCCNc5cccc6c5C(=O)N(C5CCC(=O)NC5=O)C6=O)nn4)CC3)cc2)cc(C(=O)NCc2c(C)cc(C)[nH]c2=O)c1C)C1CCOCC1 (stereo not drawn) [Example 24, N-((4,6-dimethyl-2-oxo-1,2-dihydropyridine-3-yl)methyl)-4′-((4-((1-(2-(2-((2-(2,6-dioxopiperidine-3-yl)-1,3-dioxoisoindoline-4-yl)amino)ethoxy)ethyl)-1H-1,2,3-triazole-4-yl)methyl)piperazine-1-yl)methyl)-5-(ethyl(tetrahydro-2H-pyran-4-yl)amino)-4-methyl-[1,1′-biphenyl]-3-carboxamide] | – | – | D (<25%) | 0 | –
8 | CCN(c1cc(-c2ccc(CN3CCN(CC(=O)NCCCCCCNC(=O)[C@H](CC(C)C)NC(=O)[C@@H](O)[C@H](N)Cc4ccccc4)CC3)cc2)cc(C(=O)NCc2c(C)cc(C)[nH]c2=O)c1C)C1CCOCC1 [Example 50, 4′-((4-(2-((6-((S)-2-((2S,3R)-3-amino-2-hydroxy-4-phenylbutanamido)-4-methylpentanamido)hexyl)amino)-2-oxoethyl)piperazine-1-yl)methyl)-N-((4,6-dimethyl-2-oxo-1,2-dihydropyridine-3-yl)methyl)-5-(ethyl(tetrahydro-2H-pyran-4-yl)amino)-4-methyl-[1,1′-biphenyl]-3-carboxamide] | 0 | D (key: A: >75%; B: 50-75%; C: 25-50%; D: <25%) | – | – | –
9 | CCN(c1cc(-c2ccc(CN3CCN(C(=O)CNCCCCCCNc4cccc5c4C(=O)N(C4CCC(=O)NC4=O)C5=O)CC3)cc2)cc(C(=O)NCc2c(C)cc(C)[nH]c2=O)c1C)C1CCOCC1 (stereo not drawn) [Example 14, N-((4,6-dimethyl-2-oxo-1,2-dihydropyridine-3-yl)methyl)-4′-((4-((6-((2-(2,6-dioxopiperidine-3-yl)-1,3-dioxoisoindoline-4-yl)amino)hexyl)glycyl)piperazine-1-yl)methyl)-5-(ethyl(tetrahydro-2H-pyran-4-yl)amino)-4-methyl-[1,1′-biphenyl]-3-carboxamide] | – | – | D (<25%) | 6.21 | –
10 | CCN(c1cc(-c2ccc(CN3CCN(CC(=O)NCCCOCCCOCC(=O)N[C@H](C(=O)N4C[C@H](O)C[C@H]4C(=O)NCc4ccc(-c5scnc5C)cc4)C(C)(C)C)CC3)cc2)cc(C(=O)NCc2c(C)cc(C)[nH]c2=O)c1C)C1CCOCC1 [Example 42, (2S,4R)-1-((S)-2-(tert-butyl)-16-(4-((3′-(((4,6-dimethyl-2-oxo-1,2-dihydropyridine-3-yl)methyl)carbamoyl)-5′-(ethyl(tetrahydro-2H-pyran-4-yl)amino)-4′-methyl-[1,1′-biphenyl]-4-yl)methyl)piperazine-1-yl)-4,15-dioxo-6,10-dioxa-3,14-diazahexadecanoyl)-4-hydroxy-N-(4-(4-methylthiazole-5-yl)benzyl)pyrrolidine-2-carboxamide] | 0 | D (key: A: >75%; B: 50-75%; C: 25-50%; D: <25%) | – | – | –
11 | CCN(c1cc(-c2ccc(CN3CCN(CC(=O)NCCCOCCN[C@H](C(=O)N4C[C@H](O)C[C@H]4C(=O)NCc4ccc(-c5scnc5C)cc4)C(C)(C)C)CC3)cc2)cc(C(=O)NCc2c(C)cc(C)[nH]c2=O)c1C)C1CCOCC1 [Example 39, (2S,4R)-1-((S)-2-((2-(3-(2-(4-((3′-(((4,6-dimethyl-2-oxo-1,2-dihydropyridine-3-yl)methyl)carbamoyl)-5′-(ethyl(tetrahydro-2H-pyran-4-yl)amino)-4′-methyl-[1,1′-biphenyl]-4-yl)methyl)piperazine-1-yl)acetamido)propoxy)ethyl)amino)-3,3-dimethylbutanoyl)-4-hydroxy-N-(4-(4-methylthiazole-5-yl)benzyl)pyrrolidine-2-carboxamide] | – | – | D (<25%) | 0 | –
12 | CCN(c1cc(-c2ccc(CN3CCN(CC(=O)N4CC5(CN(CCNc6cccc7c6C(=O)N(C6CCC(=O)NC6=O)C7=O)C5)C4)CC3)cc2)cc(C(=O)NCc2c(C)cc(C)[nH]c2=O)c1C)C1CCOCC1 (stereo not drawn) [Example 36, N-((4,6-dimethyl-2-oxo-1,2-dihydropyridine-3-yl)methyl)-4′-((4-(2-(6-(2-((2-(2,6-dioxopiperidine-3-yl)-1,3-dioxoisoindoline-4-yl)amino)ethyl)-2,6-diazaspiro[3.3]heptane-2-yl)-2-oxoethyl)piperazine-1-yl)methyl)-5-(ethyl(tetrahydro-2H-pyran-4-yl)amino)-4-methyl-[1,1′-biphenyl]-3-carboxamide] | – | – | D (<25%) | 0 | –
13 | CCN(c1cc(-c2ccc(CN3CCN(CCCCCCCNc4cccc5c4C(=O)N(C4CCC(=O)NC4=O)C5=O)CC3)cc2)cc(C(=O)NCc2c(C)cc(C)[nH]c2=O)c1C)C1CCOCC1 (stereo not drawn) [Example 11, N-((4,6-dimethyl-2-oxo-1,2-dihydropyridine-3-yl)methyl)-4′-((4-(7-((2-(2,6-dioxopiperidine-3-yl)-1,3-dioxoisoindoline-4-yl)amino)heptyl)piperazine-1-yl)methyl)-5-(ethyl(tetrahydro-2H-pyran-4-yl)amino)-4-methyl-[1,1′-biphenyl]-3-carboxamide] | – | – | D (<25%) | 12.87 | –
